Experimental data: patent publication US6814958B1, “Food compositions, compositions for oral cavity and medicinal compositions for preventing or treating periodontosis and method for preventing or treating periodontosis” (priority 1998, dated 2004)

Tests used:
[1] = molecular target: T1, gelatinase derived from HGF cells (Homo sapiens, UniProt P08253); experiment: Inhibitory effect on gelatinase derived from HGF cells (FITC-labelled type IV collagen); type: biochemical; settings: 42° C; read-out: 50% inhibiting concentration, Gelatinase HGF (converted)
T1 construct: endogenous in cells; host or cells: human gingiva fibroblasts (HGF), serum-free conditioned medium; purified on gelatin Sepharose 4B
T1 sequence (P08253 110-660): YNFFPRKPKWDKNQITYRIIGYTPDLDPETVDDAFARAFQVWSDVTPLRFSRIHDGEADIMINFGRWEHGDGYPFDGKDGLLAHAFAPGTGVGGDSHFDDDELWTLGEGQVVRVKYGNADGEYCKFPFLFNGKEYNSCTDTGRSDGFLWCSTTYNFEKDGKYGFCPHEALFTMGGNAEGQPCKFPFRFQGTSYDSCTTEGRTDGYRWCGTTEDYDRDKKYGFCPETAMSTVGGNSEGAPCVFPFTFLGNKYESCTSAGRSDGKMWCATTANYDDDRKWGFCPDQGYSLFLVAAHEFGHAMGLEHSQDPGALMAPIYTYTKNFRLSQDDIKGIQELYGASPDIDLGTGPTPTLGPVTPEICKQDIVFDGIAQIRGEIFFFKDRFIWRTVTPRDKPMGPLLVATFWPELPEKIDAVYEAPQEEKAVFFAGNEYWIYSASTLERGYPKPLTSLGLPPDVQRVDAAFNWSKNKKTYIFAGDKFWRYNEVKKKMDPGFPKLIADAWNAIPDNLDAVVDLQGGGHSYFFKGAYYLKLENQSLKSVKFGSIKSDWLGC
Description: The measurement method was the same as the above method for measuring the inhibitory activity on the collagenase (2-1). However, the reaction temperature was set at 42° C. The measurement was also carried out on tetracycline by the same method.

[2] = molecular target: T2, collagenase derived from human gingiva fibroblasts (HGF cell) (Homo sapiens, UniProt P03956); experiment: Inhibitory effect on collagenase derived from HGF cells (FITC-labelled type I collagen, method of Nagai et al.); type: biochemical; settings: 37° C, 4 hours; control free of test substance = 100%; read-out: 50% inhibiting concentration, Collagenase HGF (converted)
T2 construct: endogenous in cells; host or cells: human gingiva fibroblasts (HGF), serum-free conditioned medium; purified on CM Sepharose and zinc chelating Sepharose
T2 sequence (P03956 100-469): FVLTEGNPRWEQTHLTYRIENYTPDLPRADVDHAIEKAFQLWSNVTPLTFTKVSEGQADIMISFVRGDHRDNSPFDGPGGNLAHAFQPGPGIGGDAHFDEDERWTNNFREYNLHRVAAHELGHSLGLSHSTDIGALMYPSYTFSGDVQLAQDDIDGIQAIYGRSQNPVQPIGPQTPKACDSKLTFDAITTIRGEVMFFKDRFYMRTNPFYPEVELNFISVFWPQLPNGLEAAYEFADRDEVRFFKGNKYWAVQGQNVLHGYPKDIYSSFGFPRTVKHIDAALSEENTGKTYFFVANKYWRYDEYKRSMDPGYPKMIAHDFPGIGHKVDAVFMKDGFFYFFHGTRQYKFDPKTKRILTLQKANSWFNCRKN
Description: The collagenase derived from human gingiva fibroblasts (hereinafter abbreviated as “HGF cell”) for use in this test was prepared in the following manner: human procollagenase which was produced in Dulbecco modification MEM culture medium of non-blood serum using the HGF cells was refined using CM Sepharose™ (manufactured by Pharmacia Company) and zinc chelating Sepharose™ (manufactured by Pharmacia Company). The resulting substance was dissolved in a buffer solution and then was activated. The activation was carried out by incubating using aminophenyl acetic acid mercury (manufactured by Sigma Co.) as an activator at 37° C. for 4 hours.
The measurement of the inhibitory effects on collagenase of the extract containing the natural polyphenol of the above 1-1 was conducted by determining the collagenase activity of the extract. […] Specifically, 40 μl of activated human collagenase (2U/ml), 50 μg of the matrix and a test substance which was dissolved in 40 μl of an assay buffer were mixed. The mixture was allowed to react at 37° C for 4 hours. The collagenase activity of the control (free of the test substance) was regarded as 100%.

[3] = test system: collagenase production by human gingiva fibroblasts and human gingival epithelium cells; settings: of the medium with no nicotine added; 0.05% nicotine
Description: Measurements were carried out by the method described in Test Example 2. However, to the culture medium was added 0.05% nicotine, together with the test substance and 1% fetal bovine serum. The collagenase activity of the culture medium supernatant of the control (the culture medium containing only nicotine) was regarded as 100%, and the relative proportion of the collagenase activity when the test substances were added was determined.

HGF cells and HGK cells = settings: of the medium with no nicotine added; 0.05% nicotine
Description: HGF cells and HGK cells were inoculated into separate 96-well plates for tissue culture in an amount of 5,000 cells/well. These HGF cells and HGK cells were incubated at 37° C. for 1 day. Then, the incubated HGF cells were diluted in a Dulbecco modification MEM culture medium containing the test substance, 0.05% nicotine and 1% fetal bovine serum, while the incubated HGK cells were diluted in a culture medium for epithelium containing the test substance, 0.05% nicotine and 1% fetal bovine serum. The cells were incubated on the media for 5 days, and the cell proliferation activities of the cells were observed. Meanwhile, as a control was used the culture medium to which only nicotine was added. After the test substances were cultivated for 5 days, the cells were fixed in a 10% formalin solution and staining in crystal violet. The absorbance of the resulting cells at 590 nm was determined to calculate the population of the cells. The relative proportion of the test substances when the value of the control (culture medium to which only nicotine was added) was 100% was obtained.

Structure (SMILES)	IC50 [1]	IC50 [2]	increase rate of collagenase production by addition of nicotine [3]	reduction of cell proliferation by addition of nicotine (HGF cells and HGK cells)
CN(C)[C@@H]1C(O)=C(C(N)=O)C(=O)[C@@]2(O)C(O)=C3C(=O)c4c(O)cccc4[C@@](C)(O)[C@H]3C[C@@H]12 [Tetracycline]	19.6 µM	5.63 µM		
CN1CCCC1c1cccnc1 (stereo not shown) [nicotine]			380%	52%
